What was measured:
Laminaria = assay: Sensitivity of Laminaria to antibiotics/herbicide (selectable reagents); assay type: in vivo; conditions: qualitative ranking
Undaria = assay: Sensitivity of Undaria to antibiotics/herbicide (selectable reagents); assay type: in vivo; conditions: qualitative ranking

O=C(N[C@H](CO)[C@H](O)c1ccc([N+](=O)[O-])cc1)C(Cl)Cl [chloramphenicol]
sensitivity of the seaweed to the antibiotic or herbicide (Laminaria): sensitive
sensitivity of the seaweed to the antibiotic or herbicide (Undaria): sensitive

Source: patent US7663026B2, “Transformation of seaweed utilizing biolistic gene transfer to spores” (Institute of Oceanology Chinese Academy of Sciences, priority 2003, dated 2010)
